Reference: patent US20100239500A1, “SUBSTITUTED TRIAZINE COMPOUNDS FOR NERVE REGENERATION” (priority 2007, published 2010)

Legend:
cAMP levels in CGNs = experiment: cAMP levels in CGNs; format: cell-based; conditions: two hours, PDL or PDL/myelin, forskolin at concentrations indicated in chart
Method: CGNs were cultured for two hours on PDL or on PDL/myelin in the absence or presence of the four lead compounds at […] (F) at the concentrations indicated in the chart. Forskolin increased neuronal cAMP levels by 100-250-fold, while the lead compounds produced no significant increases.

[1] = system: cerebellar granule neurons (CGNs); experiment: Neurite growth of CGNs on CSPG substrates; format: cell-based; conditions: laminin/CSPG substrate
Method: (§1) The triazine compounds were added to cultures of primary cerebellar granule neurons (CGNs) to test their ability to promote neurite growth on an inhibitory substrate (PDL/central nervous system myelin). […] The compounds can promote growth on other inhibitory substrates as well. When a mixture of inhibitory chondroitin sulfate proteoglycans (CSPGs) on PDL was used as a substrate, neurite growth of CGNs was increased by each compound, as shown in FIG. 3. The compounds evidently act by overcoming inhibitory signals.

CGNs = experiment: Neurite growth of CGNs on permissive substrates (PDL, laminin); format: cell-based; conditions: CGNs on PDL or laminin (LN)
Method: CGNs were cultured on PDL or laminin (LN) substrates in the absence or presence of one of the four lead compounds, or on LN in the presence of Gö6976. Neurons grew neurites on PDL, and grew longer neurites on LN.
as §1

E15 rat spinal neurons = experiment: Growth of spinal neurons on CSPG substrates; format: cell-based; conditions: two days
Method: E15 rat spinal neurons were cultured on LN, or on LN and CSPGs (LN/CSPG) for two days. They were stained for nuclei (blue) and neuronal beta-tubulin (green).

[2] = system: cerebellar granule neurons (CGNs); experiment: High-content screen and dose-response of CGN neurite growth on PDL/myelin; format: cell-based; conditions: library compounds at 5 μM shown
Method: FIG. 2 is data from a high-content screen of neurite growth on […] (PDL)/myelin. The data for 312 compounds are summarized for total neurite growth normalized to the PDL control. The first three bars show PDL (blue), PDL/myelin (red), and PDL/myelin/dbcAMP (green). […] Straight lines drawn across data represent growth levels with dbcAMP, PDL, myelin, and 50% of the myelin level. The majority of compounds had little or no effect at the concentrations tested (5 μM is shown). […] These four compounds are subsequently referred to as lead compounds.
CGNs were cultured on PDL (control) or on myelin in the presence of the 4 hit compounds at concentrations (in nM) shown. The Cellomics Kinetic Scan Reader (an automated microscope) was used to evaluate average neurite length per neuron in each condition. Growth on myelin in the absence of compounds was set at 100% (origin of y-axis). The black horizontal line represents growth on the control (PDL) substrate; thus growth at or above this line represents complete reversal of the myelin inhibition. Each compound completely reversed growth inhibition by the myelin.
The triazine compounds were added to cultures of primary cerebellar granule neurons (CGNs) to test their ability to promote neurite growth on an inhibitory substrate (PDL/central nervous system myelin). […] The compounds can promote growth on other inhibitory substrates as well. […]

cPKC = experiment: In vitro PKC assay; format: biochemical; conditions: preincubated directly with the enzyme; lead compounds at concentrations optimally effective on cells

C=C[C@@]1(C)CC(=O)[C@]2(O)[C@@]3(C)[C@@H](O)CCC(C)(C)[C@@H]3[C@H](O)[C@H](OC(C)=O)[C@@]2(C)O1 [Forskolin, forskolin]
increase of neuronal cAMP levels (cAMP levels in CGNs): 100-250 fold

Cn1c2ccccc2c2c3c(c4c5ccccc5n(CCC#N)c4c21)CNC3=O [Go6976]
neurite growth on LN/CSPG mixture [1]: largely reversed
neurite growth on permissive substrates (CGNs): significantly increased growth on LN
growth of spinal neurons on LN/CSPG (E15 rat spinal neurons): somewhat restored

CCCC(=O)Nc1ncnc2c1ncn2[C@@H]1O[C@@H]2COP(=O)(O)O[C@H]2[C@H]1OC(=O)CCC [dbcAMP]
total neurite growth normalized to the PDL control [2]: inhibition is overcome

Calphostin C
effect on cPKC activity (cPKC): inhibits cPKC
